Assay results reported in patent US20250127857A1, “A COMPOSITION COMPRISING IL-36 AND/OR IL-18 FOR USE IN TREATING OCULAR DISORDERS” (THE PROVOST, FELLOWS, FOUNDATION SCHOLARS, & THE OTHER …, priority 2021, published 2025).

Columns and labels:
HRMEC = test: MTS assay of HRMEC proliferation with VEGF and IL-18; format: cell-based, human
Method: FIG. 17 illustrates HRMEC proliferation in response to VEGF is enhanced with IL-18 pre-treatment, wherein HRMECs were treated with increasing concentrations of VEGF alone or with a 24 hour pre-treatment of IL-18 at 10, 100 or 1000 ng/ml, wherein increasing VEGF induced an increase in cell proliferation which was enhanced following IL-18 treatment;
Cell viability was assessed using the CellTiter 96 AQueous One Solution cell proliferation MTS assay (Promega) as per the manufacturer's instructions. Cell monolayers were treated for times indicated where treatment supplemented media was then removed and incubated with 20 μl of CellTiter 96 AQueous One Solution in 100 μl of complete growth medium in a humidified incubator at 37° C. with 5% CO2for 1-4 hours. The absorbance of each well was measured at 490 nm using a SynergyMX plate reader (Biotek, Gen5™).

VEGFR2 = test: qPCR of VEGFR levels in HRMEC treated with IL-18; format: cell-based, human; details: IL-18 100 ng/ml over timepoints
Method: FIG. 15 illustrates IL-18 reduces expression of VEGFR2 specifically in Human retinal endothelial cells (HRMECs), wherein HRMECs were treated with IL-18 (100 ng/ml) over timepoints indicated, wherein cells lysates were prepared for RNA isolation and underwent qPCR and ddCt method to assess relative expression of VEGFR levels, using B-actin as reference control, wherein RT-PCR data are means±SEM of n=3 independent experiments;
Confluent HRMECs were stimulated with 50 or 100 ng/ml of recombinant human IL-18 (SB-485232; GSK); 10 ng/ml of human IL-1α (R&D systems) or 50 ng/ml of human VEGF165 (Peprotech) diluted in complete growth medium, with complete growth media added to wells alone for ‘no treatment’. […]
All RT-PCR assays were carried out using the SensiFAST SYBR Hi-ROX Kit (Bioline) with primers designed using Primer-BLAST (NCBI). […] Data were analysed using the QuantStudio™ Design & Analysis software (Applied Biosystems) and using the comparative Ct (ΔΔCt) method where test samples were normalised to endogenous control (β-Actin) followed by normalising the ΔCt of test samples to sample control (untreated sample), then calculating 2^−ΔΔCt to find the relative fold change of test samples over sample control.

[1] = system: human ocular choroidal fibroblasts (HOCFs); test: LDH assay of HOCF cell death; format: cell-based; details: HOCFs, 10, 100 or 1000 ng/ml IL-18 over 48 h
Method: FIG. 20 illustrates IL-18 activates human ocular choroidal fibroblasts and inhibits VEGF secretion, wherein (A) is human ocular choroidal fibroblast (HOCFs) treated with IL-18 at increasing doses for 8 h, wherein cells were fixed and stained with antibody targeting intermediate filament vimentin (red), Hoechst (blue) and phalloidin (green); (B) is HOCFs treated with IL-18 (100 ng/ml) over 60 mins and immunoblotted for phospho-ERK and phospo-p65 with B-actin and GAPDH as controls; (C) is HOCFs treated with IL-18 (100 ng/ml) over 24 h as indicated, wherein cells were analysed for VEGF expression by qPCR (D) is HOCFs treated with 10, 100 or 1000 ng/ml of IL-18 as indicated over 48 h and cell death was analysed by LDH assay;

VEGF [2] = test: Retinal VEGF ELISA in JR5558 mice; format: in vivo, mouse; details: JR5558 mice 3 weeks old, 100 μg/kg i.p. on 4 consecutive days, retinas isolated day 8
Method: (§1) FIG. 14 illustrates IL-18 can inhibit VEGF secretion in vivo and in vitro, wherein JR5558 mice at 3 weeks (A) were injected (i.p.) with saline (0 μg/kg) or IL-18 (100 μg/kg) on 4 consecutive days (day 1-4), wherein retinas were isolated on day 8 and VEGF concentration in protein lysates was determined using an appropriate ELISA, wherein data are presented as mean±SEM (n=4-5 animals per each treatment group) and expressed as pg of VEGF per mg of total retinal protein as measured by the BCA assay, *p<0.05 by one-way ANOVA with Tukey post test compared to saline controls; (B) is primary human foetal RPE (hfRPE) cells were treated with control medium (0 ng/ml) or a single dose of IL-18 (1000 ng/ml) for 1 to 72 hours, wherein VEGF concentration in the cell-free supernatants was measured at each time point, wherein rate of VEGF secretion was calculated from the slope of linear regression of VEGF concentration (pg/ml) against time (hours) (C), wherein data are presented as mean±SEM and represent a single experiment carried out in triplicate *p<0.05, ***p<0.001 by Student's t test compared to control at each time point;

[3] = system: laser induced CNV in WT mice; test: Fibrovascular scarring after laser induced CNV, 14 days; format: in vivo, mouse; details: IL-18 0.3ng/eye intravitreally, vs vehicle control
Method: FIG. 24 illustrates IL-18 reduces the area of fibrovascular scarring, wherein WT mice underwent laser induced CNV and were injected intravitreally with IL-18 (0.3ng/eye), wherein 14 days later eyes were enucleated, flatmounts were stained with F4/80, vimentin and isolectin and imaged by confocal microscopy; and […]

VEGF [4] = test: VEGF secretion by primary human foetal RPE (hfRPE) cells; format: cell-based; details: IL-18 1000 ng/ml, 1-72 hours
Method: as §1

With “IL-18: recombinant human IL-18 (SB-485232; GSK)” the “HRMEC proliferation, IL-18 alone” value (HRMEC) was “able to enhance HRMEC proliferation”, the “VEGF induced proliferation after IL-18 pre-treatment” value (HRMEC; 24 hour pre-treatment with IL-18 at 10, 100 or 1000 ng/ml) was “VEGF induced proliferation was increased” and the VEGFR2 expression (VEGFR2) was “specifically reduces VEGFR2”. For the same substance, the “HOCF death (LDH assay)” value [1] was “does not cause HOCF death and may enhance HOCF viability”, the “VEGF levels in the retinas” value (VEGF [2]) was “significantly decreased” and the “vimentin positive staining (area of fibrovascular scarring)” value [3] was “less vimentin positive staining”. For the same substance, the “VEGF concentration in cell-free supernatants” value (VEGF [4]) was “decreased VEGF concentration at (almost) all time points examined” and the “overall rate of VEGF secretion” value (VEGF [4]) was “significantly slowed down the overall rate of VEGF secretion”.
